For the first assay, the target named is T1, chimeric human RORγ-Gal4 receptor (Homo sapiens, UniProt P51449).
T1 sequence (P51449 269-508 limits assumed): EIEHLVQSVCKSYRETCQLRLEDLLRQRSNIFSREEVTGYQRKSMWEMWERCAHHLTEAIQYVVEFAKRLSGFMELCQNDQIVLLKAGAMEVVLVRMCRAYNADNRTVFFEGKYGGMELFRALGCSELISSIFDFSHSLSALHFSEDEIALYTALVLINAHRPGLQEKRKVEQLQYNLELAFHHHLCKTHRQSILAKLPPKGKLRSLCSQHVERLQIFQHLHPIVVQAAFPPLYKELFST
Put plainly: transient transactivation assay (RORγ-Gal4 luciferase reporter). It counts as cell-based.
Details: not given
The IC50 is the concentration needed to halve the response being measured. `Cc1cc(C#N)cc2c1cc(Cc1c(Cl)ccc(CN3CCOCC3=O)c1Cl)n2C` [Example AU, 2-(2,6-dichloro-3-((3-oxomorpholino)methyl)benzyl)-1,4-dimethyl-1H-indole-6-carbonitrile]: the half-inhibitory concentration (IC50) is 100 to 500 nM.

Still in this assay, the particulars now being: Cos-7 cells transfected with RORγ-Gal4 and 5Gal4 pGL3 TK Luc reporter; overnight incubation; T0901317 at 10^-5 M as reference; read-out: IC50.
With `Cc1cc(C(F)(F)F)cc2c1nc(Cc1c(Cl)ccc(C(=O)N3CCN(C(C)C)CC3)c1Cl)n2C` [BJ-40], the half-inhibitory concentration (IC50) lay within 100 to 500 nM.

For the compound `Cc1cn(C(=O)c2c(Cl)ccc(C(=O)N3CCC(C(=O)O)CC3)c2Cl)c2c(C)cc(C(F)(F)F)cc12` [DJ1-1], the half-maximal inhibitory concentration (IC50) was less than 100 nM.

For `Cc1cc(C(F)(F)F)cc2c1cc(Cc1c(Cl)ccc(C(=O)N3CCC(CCC(=O)O)CC3)c1Cl)n2C` [Example B-24], the IC50 was less than 100 nM.

For `Cc1cc(C(F)(F)F)nc2c1cc(C(=O)c1c(Cl)ccc(C(=O)N3CCC(C#N)CC3)c1Cl)n2C` [Example FV, 1-(2,4-dichloro-3-(1,4-dimethyl-6-(trifluoromethyl)-1H-pyrrolo[2,3-b]pyridine-2-carbonyl)benzoyl)piperidine-4-carbonitrile], the IC50 was less than 100 nM.

On to `Cc1cc(C#N)cc2c1cc(Cc1c(Cl)ccc(C(=O)N3CCCN(CCO)CC3)c1Cl)n2C` [AA-13], for which the IC50 was 100 to 500 nM.

In the case of `Cc1cc(C(F)(F)F)cc2c1nc(Cc1c(Cl)ccc(CN3CCC(N(C)C)CC3)c1Cl)n2C` [BW-16], the IC50 lay within 1000 to 10000 nM.

For `Cc1cc(OC(F)(F)F)cc2c1cc(Cc1c(Cl)ccc(C(=O)N3CCC(CC(=O)O)CC3)c1Cl)n2C` [DP, 2-(1-(2,4-dichloro-3-((1,4-dimethyl-6-(trifluoromethoxy)-1H-indol-2-yl)methyl)benzoyl)piperidin-4-yl)acetic acid], the IC50 was less than 100 nM.

As for `Cc1cc(C(F)(F)F)cc2c1cc(Cc1c(Cl)ccc(C(=O)N3CCC(C)(C(=O)O)CC3)c1Cl)n2C` [Example B-13], the IC50 is 100 to 500 nM.

As for `Cc1cc(C(F)(F)F)cc2c1nc(Cc1c(Cl)ccc(CN3CCC(C(C)(C)O)CC3)c1Cl)n2C` [BW-7], the IC50 is 100 to 500 nM.

As to `Cc1cc(C#N)cc2c1cc(Cc1c(Cl)ccc(C(=O)N3CCC(C(C)O)CC3)c1Cl)n2C` (centres unmarked) [AA-1], the IC50 was less than 100 nM.

In the case of `Cc1cc(C(F)(F)F)cc2c1nc(Cc1c(Cl)ccc(C(=O)N3CCC(C4COC4)CC3)c1Cl)n2C` [BJ-17], the IC50 is less than 100 nM.

As to `Cc1cc(C(F)(F)F)cc2c1nc(Cc1c(Cl)ccc(C(=O)N3CCC(C(C)O)CC3)c1Cl)n2C` (centres unmarked) [BJ-12], the IC50 is less than 100 nM.

`Cc1cc(C#N)cc2c1cc(Cc1c(Cl)ccc(O[C@H]3CC[C@@H](C(=O)O)C3)c1Cl)n2C` (relative stereo) [Example AG1, cis-3-(2,4-dichloro-3-((6-cyano-1,4-dimethyl-1H-indol-2-yl)methyl)phenoxy)cyclopentanecarboxylic acid]: the IC50 fell in the range of 500 to 1000 nM.

For the compound `Cn1c(Cc2c(Cl)ccc(C(=O)N3CCOCC3)c2Cl)nc2c(C(F)(F)F)cc(C#N)cc21` [CF, 2-(2,6-dichloro-3-(morpholine-4-carbonyl)benzyl)-1-methyl-4-(trifluoromethyl)-1H-benzo[d]imidazole-6-carbonitrile], the IC50 is 500 to 1000 nM.

Take `Cc1cc(C(F)(F)F)cc2c1c(Cc1c(Cl)ccc(C(=O)N3CC[C@@H](C(=O)O)[C@@H](C)C3)c1Cl)cn2C` [Example F1-3]: the IC50 is less than 100 nM.

For the compound `Cn1c(Cc2c(Cl)ccc(C(=O)N3CCC(CC(=O)O)CC3)c2Cl)cc2ccc(OC(F)(F)F)cc21` [Example FI, 2-(1-(2,4-dichloro-3-((1-methyl-6-(trifluoromethoxy)-1H-indol-2-yl)methyl)benzoyl)piperidin-4-yl)acetic acid], the IC50 is less than 100 nM.

Consider `Cc1cc(C(F)(F)F)nc2c1cc(C(=O)c1c(Cl)ccc(C(=O)N3CCC(S(C)(=O)=O)CC3)c1Cl)n2C` [Example GB, (2,4-dichloro-3-(1,4-dimethyl-6-(trifluoromethyl)-1H-pyrrolo[2,3-b]pyridine-2-carbonyl)phenyl)(4-(methylsulfonyl)piperidin-1-yl)methanone], for which the half-inhibitory concentration (IC50) was less than 100 nM.

For the compound `C[C@@H]1CN(C(=O)c2ccc(Cl)c(Cc3cc4c(F)cc(C(F)(F)F)cc4n3C)c2Cl)CC[C@@H]1C(=O)O` [FE-3], the IC50 is less than 100 nM.

`Cn1c(Cc2c(Cl)ccc(C(=O)N3CCOCC3)c2Cl)cc2cccnc21` [CK, (2,4-dichloro-3-((1-methyl-1H-pyrrolo[2,3-b]pyridin-2-yl)methyl)phenyl)(morpholino)methanone]: the IC50 was 1000 to 10000 nM.

Regarding `CNC(=O)[C@@H]1CCCN1C(=O)c1ccc(Cl)c(Cc2cc3c(C)cc(C#N)cc3n2C)c1Cl` [AA-32], the IC50 lay within 100 to 500 nM.

For the compound `Cc1cc(C(F)(F)F)cc2c1cc(Cc1c(Cl)ccc(C(=O)N3CCN(C4COC4)CC3)c1Cl)n2C` [Example A1, (2,4-dichloro-3-((1,4-dimethyl-6-(trifluoromethyl)-1H-indol-2-yl)methyl)phenyl)(4-(oxetan-3-yl)piperazin-1-yl)methanone], the IC50 was less than 100 nM.

Take `Cc1cc(C(F)(F)F)cc2c1cc(C(=O)c1c(Cl)ncc(C(=O)N3CCC(CC(=O)O)CC3)c1Cl)n2C` [Example FG, 2-(1-(4,6-dichloro-5-(1,4-dimethyl-6-(trifluoromethyl)-1H-indole-2-carbonyl)nicotinoyl)piperidin-4-yl)acetic acid]: the IC50 is less than 100 nM.

As to `COCCN1CCN(Cc2ccc(Cl)c(Cc3nc4c(C)cc(C(F)(F)F)cc4n3C)c2Cl)CC1` [BW-9], the IC50 lay in the range of 100 to 500 nM.

For `Cc1cc(N2CCOCC2)cc2c1cc(Cc1c(Cl)ccc(C(=O)N3CCOCC3)c1Cl)n2C` [Example AY, (2,4-dichloro-3-((1,4-dimethyl-6-morpholino-1H-indol-2-yl)methyl)phenyl)(morpholino)methanone], the 50% inhibitory concentration (IC50) was less than 100 nM.

`CSc1ccc2c(ccn2Cc2c(Cl)ccc(C(=O)N3CCC(CC(=O)O)CC3)c2Cl)c1` [EI-2]: the IC50 was less than 100 nM.

As for `Cc1cn(Cc2c(Cl)ccc(C(=O)N3CCC(C(=O)O)CC3)c2Cl)c2c(C)cc(OC(F)(F)F)cc12` [EG-1], the IC50 was less than 100 nM.

For the compound `Cc1cc(C(F)(F)F)cn2c(C)c(Cc3c(Cl)ccc(C(=O)N4CCN(C5COC5)CC4)c3Cl)nc12` [CT-9], the half-maximal inhibitory concentration (IC50) was in the range of 100 to 500 nM.

With `Cc1cc(C#N)cc2c1cc(Cc1c(Cl)cnc(C(=O)N3CCC(O)CC3)c1Cl)n2C` [BF-2], the IC50 is 100 to 500 nM.

On to `Cc1cc(C(F)(F)F)cc2c1CC(Cc1c(Cl)ccc(C(=O)N3CCOCC3)c1Cl)N2C` (centres unmarked) [Example Q, (2,4-dichloro-3-((1,4-dimethyl-6-(trifluoromethyl)indolin-2-yl)methyl)phenyl)(morpholino)methanone], for which the IC50 was 100 to 500 nM.

For `Cc1cc(C(F)(F)F)nn2c(C)c(Cc3c(Cl)ccc(C(=O)N4CCOCC4)c3Cl)nc12` [CZ, (2,4-dichloro-3-((3,8-dimethyl-6-(trifluoromethyl)imidazo[1,2-b]pyridazin-2-yl)methyl)phenyl)(morpholino)methanone], the IC50 is less than 100 nM.

`Cc1cc(OC(F)(F)F)cc2ccn(Cc3c(Cl)ccc(C(=O)N4CCC(CCC(=O)O)CC4)c3Cl)c12` [EJ-2]: the IC50 is less than 100 nM.

Consider `Cc1cc(C(F)(F)F)cc2c1nc(Cc1c(Cl)ccc(CN3CCC(O)CC3)c1Cl)n2C` [BW-4], for which the concentration for half-maximal inhibition (IC50) is 100 to 500 nM.

With `Cn1c(Cc2c(Cl)ccc(C(=O)N3CCC(CC(=O)O)CC3)c2Cl)cc2c(Cl)cc(Cl)cc21` [FA, 2-(1-(2,4-dichloro-3-((4,6-dichloro-1-methyl-1H-indol-2-yl)methyl)benzoyl)piperidin-4-yl)acetic acid], the concentration for half-maximal inhibition (IC50) was less than 100 nM.

For the compound `Cc1cc(C#N)cc2c1nc(Cc1c(Cl)ccc(C(=O)N3CCC(C(C)(C)O)CC3)c1Cl)n2C` [BN-7], the IC50 is 100 to 500 nM.

For `Cc1cc(C(F)(F)F)cc2ccn(Cc3c(Cl)ccc(C(=O)N4CCC(CC(=O)O)CC4)c3Cl)c12` [J, 2-(1-(2,4-dichloro-3-((7-methyl-5-(trifluoromethyl)-1H-indol-1-yl)methyl)benzoyl)piperidin-4-yl)acetic acid], the concentration for half-maximal inhibition (IC50) is less than 100 nM.

In the case of `Cc1cc(C(F)(F)F)cc2c1c(Cc1c(Cl)ccc(C(=O)N3CCC(C(=O)O)CC3)c1Cl)cn2C` [Example FQ, 1-(2,4-dichloro-3-((1,4-dimethyl-6-(trifluoromethyl)-1H-indol-3-yl)methyl)benzoyl)piperidine-4-carboxylic acid], the IC50 was less than 100 nM.

`O=C(O)CC1CCN(C(=O)c2ccc(Cl)c(Cn3ccc4c(C(F)(F)F)cccc43)c2Cl)CC1` [EI-7]: the IC50 is less than 100 nM.

On to `Cn1c(C(=O)c2c(Cl)ccc(C(=O)N3CCC(CC(=O)O)CC3)c2Cl)cc2ccc(OC(F)(F)F)cc21` [Example GI, 2-(1-(2,4-dichloro-3-(1-methyl-6-(trifluoromethoxy)-1H-indole-2-carbonyl)benzoyl)piperidin-4-yl)acetic acid], for which the IC50 is less than 100 nM.

With `Cc1cc(C(F)(F)F)cc2cn(Cc3c(Cl)ccc(C(=O)N4CCC(CC(=O)O)CC4)c3Cl)nc12` [ED, 2-(1-(2,4-dichloro-3-((7-methyl-5-(trifluoromethyl)-2H-indazol-2-yl)methyl)benzoyl)piperidin-4-yl)acetic acid], the IC50 is less than 100 nM.

Turning to `Cc1cc(C#N)cc2c1cc(Cc1c(Cl)cnc(C(=O)N3CCC(CC(=O)O)CC3)c1Cl)n2C` [Example BG, 2-[1-[3,5-dichloro-4-[(6-cyano-1,4-dimethyl-indol-2-yl)methyl]pyridine-2-carbonyl]-4-piperidyl]acetic acid], the IC50 lay within 500 to 1000 nM.

Regarding `Cc1cc(C(F)(F)F)cc2c1cc(Cc1c(Cl)ncc(C(=O)N3CCC(CC(=O)O)CC3)c1Cl)n2C` [Example B-22], the IC50 was less than 100 nM.

As for `Cc1cc(OC(F)(F)F)cc2ccn(C(=O)c3c(Cl)ccc(C(=O)N4CC5(CC(CC(=O)O)C5)C4)c3Cl)c12` [EL-1], the IC50 is less than 100 nM.

Regarding `Cc1cc(C#N)cc2c1cc(Cc1c(Cl)ccc(C(=O)N3CC(N4CCCC4)C3)c1Cl)n2C` [AA-16], the IC50 lay within 100 to 500 nM.

These data come from US10106501B2, “Nuclear receptor modulators” (AbbVie Inc., priority 2015, dated 2018).
